Read-outs that look alike come from different tables or passages of the source.
Experiments:
[1] = target: T1, human Gcg receptor (hGcgR) (Homo sapiens, UniProt P47871); test: [125I]-Glucagon binding, SPA with membranes of HEK293 cells expressing hGcgR; conditions: human GcgR; geometric mean (SEM, n); read-out: Binding Affinity Ki, nM (SEM, n) hGCGR
T1 construct: expressed in transfected cells; crude membranes
Description: Two methods are used for the preparation of crude cell membranes.
Method 1: Frozen cell pellets are lysed on ice in hypotonic buffer containing 50 mM Tris HCl, pH 7.5, and Roche Complete™ Protease Inhibitors with EDTA. […] The homogenate is centrifuged at 4° C. at 1100 × g for 10 minutes. The supernatant is collected and stored on ice while the pellets are resuspended in homogenization buffer and rehomogenized as described above. The homogenate is centrifuged at 1100 × g for 10 minutes. The second supernatant is combined with the first supernatant and centrifuged at 35000 × g for 1 hour at 4° C. The resulting membrane pellet is resuspended in homogenization buffer containing protease inhibitors at approximately 1 to 3 mg/mL, quick frozen in liquid nitrogen and stored as aliquots in a -80° C. freezer until use.
The homogenate is centrifuged at 4° C. at 1800 × g for 15 minutes. The supernatant is collected and stored on ice while the pellets are resuspended in homogenization buffer (without DNAse I) and rehomogenized as described above. The homogenate is centrifuged at 1800 × g for 15 minutes. The second supernatant is combined with the first supernatant and centrifuged an additional time at 1800 × g for 15 minutes. The overall supernatant is then centrifuged at 25000 × g for 30 minutes at 4° C. The resulting membrane pellet is resuspended in homogenization buffer (without DNAse I) containing protease inhibitors at approximately 1 to 3 mg/mL and stored as aliquots in a -80° C. freezer until use.
The human Gcg receptor binding assays are performed using a Scintillation Proximity Assay (SPA) format with wheat germ agglutinin (WGA) beads (Perkin Elmer). The binding buffer contains 25 mM 4-(2-hydroxyethyl)-1-piperazineethanesulfonic acid (HEPES), pH 7.4, 2.5 mM CaCl2, 1 mM MgCh, 0.1% (w/v) bacitracin (Research Products), 0.003% (w/v) Polyoxyethylenesorbitan monolaurate (TWEEN®-20), and Roche Complete™ Protease Inhibitors without EDTA. […] Next, 5 µL serially diluted compound or DMSO is transferred into Corning® 3632 clear bottom assay plates containing 45 µL assay binding buffer or unlabeled Gcg control (non-specific binding or NSB, at 1 µM final). […] Plates are sealed and mixed on a plate shaker (setting 6) for 1 minute and read with a PerkinElmer Trilux MicroBeta® scintillation counter after 12 hours of incubation/settling time at room temperature.
Raw CPM data for concentration curves of peptides, Gcg, GLP-1, or GIP are converted to percent inhibition by subtracting nonspecific binding (binding in the presence of excess unlabeled Gcg, GLP-1, or GIP, respectively) from the individual CPM values and dividing by the total binding signal, also corrected by subtracting nonspecific binding. Data are analyzed using four-parameter (curve maximum, curve minimum, IC50, Hill slope) nonlinear regression routines (Genedata Screener, version 12.0.4, Genedata AG, Basal, Switzerland). […] Values for Ki are reported as the geometric mean, with error expressed as the standard error of the mean (SEM) and n is equal to the number of independent replicates (determined in assays performed on different days). Geometric Means are calculated as follows: […]
The Ki Ratio (Ki for native control peptide/Ki for test compound) at each receptor and each species is calculated. The Ki Ratio is a rapid indication of the apparent affinity of a peptide compared to the native control peptide.
n=⅟x means that only one value out of the total number of replicates (x) is used to express the mean. SEM is only calculated when n=2 or greater non-qualified results exist. Means are expressed as GeoMetric means with the standard error of the mean (SEM) and the number of replicates (n) indicated in parenthesis.

[2] = target: T2, hGIPR (Homo sapiens, UniProt P48546); test: Functional cAMP formation (HTRF) in HEK-293 clonal cells expressing hGIPR, 0.1% bovine casein, without or with 1.0% human serum albumin; assay type: cell-based; conditions: for Emax: read-out: hGIPR Emax, % ± SEM; for EC50: geometric mean, read-out: hGIPR EC50, nM (SEM, n)
T2 construct: expressed in transfected cells
T2 sequence (P48546 22-466): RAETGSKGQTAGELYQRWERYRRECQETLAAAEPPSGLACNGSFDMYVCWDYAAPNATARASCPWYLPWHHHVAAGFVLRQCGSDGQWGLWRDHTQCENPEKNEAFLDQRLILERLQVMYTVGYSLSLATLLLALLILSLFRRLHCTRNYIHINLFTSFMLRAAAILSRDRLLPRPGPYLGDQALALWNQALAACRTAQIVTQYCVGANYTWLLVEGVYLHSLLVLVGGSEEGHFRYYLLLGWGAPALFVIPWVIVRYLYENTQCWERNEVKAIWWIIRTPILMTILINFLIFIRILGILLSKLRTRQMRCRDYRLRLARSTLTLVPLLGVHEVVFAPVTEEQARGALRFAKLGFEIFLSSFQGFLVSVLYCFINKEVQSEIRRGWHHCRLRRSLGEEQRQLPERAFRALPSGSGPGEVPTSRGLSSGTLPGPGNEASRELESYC
In short: (§1)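 Readings of the HTRF 665/620 nm ratio, which falls as cAMP rises, were converted to nM cAMP using a standard curve after 30 min peptide exposure at 37° C.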

[3] = target: T3, hGCGR (Homo sapiens, UniProt P47871); test: Functional cAMP formation (HTRF) in HEK-293 clonal cells expressing hGCGR, 0.1% bovine casein, without or with 1.0% human serum albumin; assay type: cell-based; conditions: geometric mean, read-out: hGCGR EC50, nM (SEM, n)
T3 construct: expressed in transfected cells
In short: as §1

[4] = target: hGLP-1R (Homo sapiens, UniProt P43220); test: Functional cAMP formation (HTRF) in HEK-293 clonal cells expressing hGLP-1R, 0.1% bovine casein, without or with 1.0% human serum albumin; assay type: cell-based; parameters: expressed in transfected cells; conditions: for Emax: read-out: hGLP-1R Emax, % ± SEM; for EC50: geometric mean, read-out: hGLP-1R EC50, nM (SEM, n)
In short: as §1

[5] = HEK293, 0.1% bovine casein and 1.0% human serum albumin, 37° C., percent of maximal response to GIP(1-42)NH2
[6] = HEK293, percent of maximal response to GIP(1-42)NH2, 37° C., 0.1% bovine casein, arithmetic mean
[7] = cAMP, incubated at 37° C., 0.1% bovine casein (no human serum albumin)
[8] = 0.1% bovine casein and 1.0% human serum albumin, 37° C.
[9] = HEK293, 0.1% bovine casein and 1.0% human serum albumin, 37° C., percent of maximal response to GLP-1(7-36)NH2

Chain of hGLP-1R (P43220 24-463): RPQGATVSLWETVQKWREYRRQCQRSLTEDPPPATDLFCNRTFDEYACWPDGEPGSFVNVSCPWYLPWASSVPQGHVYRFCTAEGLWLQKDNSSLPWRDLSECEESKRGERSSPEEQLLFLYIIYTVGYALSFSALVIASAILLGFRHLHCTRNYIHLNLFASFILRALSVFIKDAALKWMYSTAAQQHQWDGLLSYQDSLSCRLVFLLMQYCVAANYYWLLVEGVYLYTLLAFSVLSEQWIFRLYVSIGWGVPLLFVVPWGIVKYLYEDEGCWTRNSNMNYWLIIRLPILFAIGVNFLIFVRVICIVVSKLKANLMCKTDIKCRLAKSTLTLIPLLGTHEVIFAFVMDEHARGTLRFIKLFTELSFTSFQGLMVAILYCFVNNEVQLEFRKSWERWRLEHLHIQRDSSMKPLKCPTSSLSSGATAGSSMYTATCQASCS
T3 sequence (P47871 26-477): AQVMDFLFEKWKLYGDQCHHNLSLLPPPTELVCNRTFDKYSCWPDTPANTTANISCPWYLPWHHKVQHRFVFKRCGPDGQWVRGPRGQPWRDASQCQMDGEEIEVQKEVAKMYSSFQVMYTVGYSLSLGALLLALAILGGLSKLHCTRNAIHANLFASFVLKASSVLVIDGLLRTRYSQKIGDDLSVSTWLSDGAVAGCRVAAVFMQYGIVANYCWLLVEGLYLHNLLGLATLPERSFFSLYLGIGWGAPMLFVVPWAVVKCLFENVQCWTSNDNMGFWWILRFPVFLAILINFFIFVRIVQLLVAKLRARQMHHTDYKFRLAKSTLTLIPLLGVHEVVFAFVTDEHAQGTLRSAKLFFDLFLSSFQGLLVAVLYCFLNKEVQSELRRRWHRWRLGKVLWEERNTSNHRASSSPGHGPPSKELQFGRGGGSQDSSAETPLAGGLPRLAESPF
T1 sequence (P47871 26-477): as above

Compound | Ki [1] [nM] | Emax [2, 5] [%] | Emax [2, 6] [%] | EC50 [2, 7] [nM] | EC50 [3, 8] [nM] | EC50 [3, 7] [nM] | Emax [4, 9] [%] | Emax ([4]; HEK293, percent of maximal response to GLP-1(7-36)NH2, 37° C., 0.1% bovine casein, arithmetic mean) [%] | EC50 [4, 7] [nM] | EC50 [2, 8] [nM] | EC50 [4, 8] [nM]
CC[C@H](C)[C@H](NC(=O)[C@H](CC(C)C)NC(=O)[C@](C)(Cc1ccccc1)NC(=O)[C@@H](CCC(=O)O)NC(=O)[C@@H](NC(=O)[C@H](Cc1ccccc1)NC(=O)[C@H](CCC(=O)O)NC(=O)C(C)(C)NC(=O)[C@H](CCC(N)=O)NC(=O)[C@H](C)NC(=O)[C@H](CCCCNC(=O)COCCOCCNC(=O)COCCOCCNC(=O)CC[C@H](NC(=O)CCCCCCCCCCCCC(=O)O)C(=O)O)NC(=O)[C@H](CCCN)NC(=O)[C@H](CC(=O)O)NC(=O)[C@H](CC(C)C)NC(=O)[C@](C)(CC(C)C)NC(=O)[C@@H](NC(=O)[C@H](CO)NC(=O)[C@H](Cc1ccncc1)NC(=O)[C@H](CC(=O)O)NC(=O)[C@H](CO)NC(=O)[C@@H](NC(=O)[C@](C)(Cc1ccccc1)NC(=O)[C@@H](NC(=O)CNC(=O)[C@H](CCC(=O)O)NC(=O)C(C)(C)NC(=O)[C@@H](N)Cc1ccc(O)cc1)[C@@H](C)O)[C@@H](C)O)[C@@H](C)CC)[C@@H](C)CC)C(=O)N[C@@H](CCC(=O)O)C(=O)NCC(=O)NCC(=O)N[C@@H](CCCCNC(=O)COCCOCCNC(=O)COCCOCCNC(=O)CC[C@H](NC(=O)CCCCCCCCCCCCC(=O)O)C(=O)O)C(=O)N[C@@H](CO)C(=O)N[C@@H](CO)C(=O)NCC(=O)N[C@@H](C)C(=O)N1CCC[C@H]1C(=O)N1CCC[C@H]1C(=O)N1CCC[C@H]1C(=O)N[C@@H](CO)C(N)=O [Example 48] | > 966 | 90.8 | 91.6 ± 3.38 | 0.0182 | > 9950 | > 9950 | 111 | 87.8 ± 6.25 | 1 | – | –
CC[C@H](C)[C@H](NC(=O)[C@H](CCCN)NC(=O)[C@H](CC(=O)O)NC(=O)[C@H](CC(C)C)NC(=O)[C@](C)(CC(C)C)NC(=O)[C@@H](NC(=O)[C@H](CO)NC(=O)[C@H](Cc1ccncc1)NC(=O)[C@H](CC(=O)O)NC(=O)[C@H](CO)NC(=O)[C@@H](NC(=O)[C@](C)(Cc1ccccc1F)NC(=O)[C@@H](NC(=O)CNC(=O)[C@H](CCC(=O)O)NC(=O)C(C)(C)NC(=O)[C@@H](N)Cc1ccc(O)cc1)[C@@H](C)O)[C@@H](C)O)[C@@H](C)CC)C(=O)N[C@@H](C)C(=O)N[C@@H](CCC(N)=O)C(=O)NC(C)(C)C(=O)N[C@@H](CCC(=O)O)C(=O)N[C@@H](Cc1ccccc1)C(=O)N[C@H](C(=O)N[C@H](CCC(=O)O)C(=O)N[C@@](C)(Cc1ccc(O)cc1)C(=O)N[C@@H](CC(C)C)C(=O)N[C@H](C(=O)N[C@@H](CCCCNC(=O)COCCOCCNC(=O)COCCOCCNC(=O)CC[C@H](NC(=O)CCCCCCCCCCCCC(=O)O)C(=O)O)C(=O)NCC(=O)NCC(=O)N[C@@H](CCCCNC(=O)COCCOCCNC(=O)COCCOCCNC(=O)CC[C@H](NC(=O)CCCCCCCCCCCCC(=O)O)C(=O)O)C(=O)N[C@@H](CO)C(=O)N[C@@H](CO)C(=O)NCC(=O)N[C@@H](C)C(=O)N1CCC[C@H]1C(=O)N1CCC[C@H]1C(=O)N1CCC[C@H]1C(=O)N[C@@H](CO)C(N)=O)[C@@H](C)CC)[C@@H](C)CC [Example 20] | 139 | 90.6 ± 0.878 | 98.8 ± 3.19 | – | > 9950 | > 9950 | – | – | – | 1.66 | 62.4
CC[C@H](C)[C@H](NC(=O)[C@H](CC(C)C)NC(=O)[C@](C)(Cc1ccc(O)cc1)NC(=O)[C@@H](CCC(=O)O)NC(=O)[C@@H](NC(=O)[C@H](Cc1ccccc1)NC(=O)[C@H](CCC(=O)O)NC(=O)C(C)(C)NC(=O)[C@H](CCC(N)=O)NC(=O)[C@H](C)NC(=O)[C@H](CCCCNC(=O)COCCOCCNC(=O)CC[C@H](NC(=O)COCCOCCNC(=O)CCCCCCCCCCCCC(=O)O)C(=O)O)NC(=O)[C@H](CCCN)NC(=O)[C@H](CC(=O)O)NC(=O)[C@H](CC(C)C)NC(=O)[C@](C)(CC(C)C)NC(=O)[C@@H](NC(=O)[C@H](CO)NC(=O)[C@H](Cc1ccncc1)NC(=O)[C@H](CC(=O)O)NC(=O)[C@H](CO)NC(=O)[C@@H](NC(=O)[C@](C)(Cc1ccccc1F)NC(=O)[C@@H](NC(=O)CNC(=O)[C@H](CCC(=O)O)NC(=O)C(C)(C)NC(=O)[C@@H](N)Cc1ccc(O)cc1)[C@@H](C)O)[C@@H](C)O)[C@@H](C)CC)[C@@H](C)CC)C(=O)N[C@@H](CCC(=O)O)C(=O)NCC(=O)NCC(=O)N[C@@H](CCCCNC(=O)COCCOCCNC(=O)CC[C@H](NC(=O)COCCOCCNC(=O)CCCCCCCCCCCCC(=O)O)C(=O)O)C(=O)N[C@@H](CO)C(=O)N[C@@H](CO)C(=O)NCC(=O)N[C@@H](C)C(=O)N1CCC[C@H]1C(=O)N1CCC[C@H]1C(=O)N1CCC[C@H]1C(=O)N[C@@H](CO)C(N)=O [Example 43] | > 957 | – | – | 0.0123 | > 9950 | > 9950 | 98.7 | – | – | 0.375 | 35.6

From US20230265151A1, “GIP/GLP1 CO-AGONIST COMPOUNDS” (priority 2020, published 2023)
